# Measurements reported in patent US20260285850A1, “SUBSTITUTED OXAZOLIDINONES AND IMIDAZOLINONES AS HERBICIDES” (FMC CORPORATION, priority 2023, published 2026).
# Key:
# Format in all cases: in vivo
# [1] = system: wheat (Triticum aestivum); test: Test A preemergence soil spray, visual injury rating 0-100; conditions: 10 days
# Method in brief: (§1)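 Preemergence directed soil spray or postemergence spray (2-10 cm, 1-2 leaf); loam/sand mix; compound in non-phytotoxic solvent + surfactant. Greenhouse, 10 d. Visual injury vs untreated, 0 = none, 100 = complete control.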
# [2] = system: blackgrass (Alopecurus myosuroides); test: as above; conditions: 10 days
# Method in brief: as §1
# [3] = system: ragweed (common ragweed, Ambrosia artemisiifolia); test: as above; conditions: 10 days
# Method in brief: as §1
# [4] = system: soybean (Glycine max); test: as above; conditions: 10 days
# Method in brief: as §1
# [5] = system: palmer (palmer amaranth, palmer pigweed, Amaranthus palmeri); test: as above; conditions: 10 days
# Method in brief: as §1
# [6] = system: oat, wild (wild oat, Avena fatua); test: as above; conditions: 10 days
# Method in brief: as §1
# [7] = system: barnyardgrass (Echinochloa crus-galli); test: as above; conditions: 10 days
# Method in brief: as §1
# [8] = system: kochia (Bassia scoparia); test: as above; conditions: 10 days
# Method in brief: as §1
# [9] = system: ryegrass, Italian (italian ryegrass, Lolium multiflorum); test: as above; conditions: 10 days
# Method in brief: as §1
# [10] = system: corn (Zea mays); test: as above; conditions: 10 days
# Method in brief: as §1
# [11] = system: green foxtail (Setaria viridis); test: as above; conditions: 10 days
# Method in brief: as §1
# [12] = system: rice (Oryza sativa); test: Test B flooded paddy test, visual plant response rating 0-100; conditions: 250 g ai/ha, Flood, applied to paddy water, evaluated after 13 days
# Method in brief: (§2)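 Visual evaluation after 13 days. Water-applied treatment, 3 cm flood depth held constant, plants at 2-leaf stage at treatment.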
# [13] = system: ducksalad (Heteranthera limosa); test: as above; conditions: 250 g ai/ha, Flood, applied to paddy water, evaluated after 13 days
# Method in brief: as §2
# [14] = system: barnyardgrass (Echinochloa crusgalli); test: as above; conditions: 250 g ai/ha, Flood, applied to paddy water, evaluated after 13 days
# Method in brief: as §2
# [15] = system: sedge, umbrella (small-flower umbrella sedge, Cyperus difformis); test: as above; conditions: 250 g ai/ha, Flood, applied to paddy water, evaluated after 13 days
# Method in brief: as §2
# [16] = system: wheat (Triticum aestivum); test: Test A postemergence application, visual injury rating 0-100
# Method in brief: as §1
# [17] = system: blackgrass (Alopecurus myosuroides); test: as above
# Method in brief: as §1
# [18] = system: ragweed (common ragweed, Ambrosia artemisiifolia); test: as above
# Method in brief: as §1
# [19] = system: soybean (Glycine max); test: as above
# Method in brief: as §1
# [20] = system: palmer (palmer amaranth, palmer pigweed, Amaranthus palmeri); test: as above
# Method in brief: as §1
# [21] = system: oat, wild (wild oat, Avena fatua); test: as above
# Method in brief: as §1
# [22] = system: horseweed (Erigeron canadensis); test: as above
# Method in brief: as §1
# [23] = system: barnyardgrass (Echinochloa crus-galli); test: as above
# Method in brief: as §1
# [24] = system: kochia (Bassia scoparia); test: as above
# Method in brief: as §1
# [25] = system: ryegrass, Italian (italian ryegrass, Lolium multiflorum); test: as above
# Method in brief: as §1
# [26] = system: corn (Zea mays); test: as above
# Method in brief: as §1
# [27] = system: galium (catchweed bedstraw, Galium aparine); test: as above
# Method in brief: as §1
# [28] = system: green foxtail (Setaria viridis); test: as above
# Method in brief: as §1
# [29] = 62 g ai/ha, 0 = no effect, 100 = complete control
# [30] = 62 g ai/ha, postemergence, 10 days, 0 = no effect, 100 = complete control
# [31] = Postemergence, 16 g ai/ha, greenhouse 10 days, 0 no effect, 100 complete control
smiles,measurement,setting,value
C=CC1(C(=O)NC2CC(C(=O)OC)C2)CN(c2cc(F)cc(F)c2)C(=O)O1 (stereo not shown) [Compound 172],Wheat plant response rating,"[1]; 16 g ai/ha, 0 to 100 scale",90
same,Wheat plant response rating (0-100),[1]; [29],100
same,Blackgrass plant response rating,"[2]; 16 g ai/ha, 0 to 100 scale",50
same,Blackgrass plant response rating (0-100),[2]; [29],90
same,Ragweed plant response rating,"[3]; 16 g ai/ha, 0 to 100 scale",0
same,Ragweed plant response rating (0-100),[3]; [29],0
same,Soybean plant response rating,"[4]; 16 g ai/ha, 0 to 100 scale",0
same,Soybean plant response rating (0-100),[4]; [29],70
same,"Pigweed, Palmer plant response rating","[5]; 16 g ai/ha, 0 to 100 scale",10
same,"Pigweed, Palmer plant response rating (0-100)",[5]; [29],60
same,"Oat, Wild plant response rating","[6]; 16 g ai/ha, 0 to 100 scale",30
same,"Oat, Wild plant response rating (0-100)",[6]; [29],90
same,Barnyardgrass plant response rating,"[7]; 16 g ai/ha, 0 to 100 scale",0
same,Barnyardgrass plant response rating (0-100),[7]; [29],90
same,Kochia plant response rating,"[8]; 16 g ai/ha, 0 to 100 scale",0
same,Kochia plant response rating (0-100),[8]; [29],100
same,"Ryegrass, Italian plant response rating","[9]; 16 g ai/ha, 0 to 100 scale",40
same,"Ryegrass, Italian plant response rating (0-100)",[9]; [29],90
same,Corn plant response rating,"[10]; 16 g ai/ha, 0 to 100 scale",80
same,Corn plant response rating (0-100),[10]; [29],90
same,"Foxtail, Green plant response rating","[11]; 16 g ai/ha, 0 to 100 scale",40
same,"Foxtail, Green plant response rating (0-100)",[11]; [29],100
same,"Plant response rating, Rice (0 to 100 scale, 0 is no effect and 100 is complete control)",[12],70
same,"Plant response rating, Ducksalad (0 to 100 scale, 0 is no effect and 100 is complete control)",[13],80
same,"Plant response rating, Barnyardgrass (0 to 100 scale, 0 is no effect and 100 is complete control)",[14],95
same,"Plant response rating, Sedge, Umbrella (0 to 100 scale, 0 is no effect and 100 is complete control)",[15],100
same,Wheat plant response rating (0-100),[16]; [30],90
same,Wheat plant response rating (0 to 100 scale),[16]; [31],90
same,Blackgrass plant response rating (0-100),[17]; [30],90
same,Blackgrass plant response rating (0 to 100 scale),[17]; [31],90
same,Ragweed plant response rating (0-100),[18]; [30],20
same,Ragweed plant response rating (0 to 100 scale),[18]; [31],10
same,Soybean plant response rating (0-100),[19]; [30],80
same,Soybean plant response rating (0 to 100 scale),[19]; [31],80
same,"Pigweed, Palmer plant response rating (0-100)",[20]; [30],60
same,"Pigweed, Palmer plant response rating (0 to 100 scale)",[20]; [31],10
same,"Oat, Wild plant response rating (0-100)",[21]; [30],90
same,"Oat, Wild plant response rating (0 to 100 scale)",[21]; [31],90
same,Horseweed plant response rating (0-100),[22]; [30],10
same,Horseweed plant response rating (0 to 100 scale),[22]; [31],0
same,Barnyardgrass plant response rating (0-100),[23]; [30],90
same,Barnyardgrass plant response rating (0 to 100 scale),[23]; [31],80
same,Kochia plant response rating (0-100),[24]; [30],90
same,Kochia plant response rating (0 to 100 scale),[24]; [31],90
same,"Ryegrass, Italian plant response rating (0-100)",[25]; [30],90
same,"Ryegrass, Italian plant response rating (0 to 100 scale)",[25]; [31],80
same,Corn plant response rating (0-100),[26]; [30],100
same,Corn plant response rating (0 to 100 scale),[26]; [31],100
same,Galium plant response rating (0-100),[27]; [30],90
same,Galium plant response rating (0 to 100 scale),[27]; [31],90
same,"Foxtail, Green plant response rating (0-100)",[28]; [30],90
same,"Foxtail, Green plant response rating (0 to 100 scale)",[28]; [31],80
